{"source": "patent US9662404B2", "about": "“Compositions and methods for the delivery of molecules into live cells” (The Texas A&M University System, priority 2013, dated 2017)", "system": "HeLa, NIH 3T3, COLO 316 and HaCaT", "settings": "5 μM", "procedure": "The TAT, dTAT and acTAT peptides were incubated for 1 h with several cell lines and internalization was assessed by fluorescence microscopy. […] See also FIG. 5. […] The cell lines HeLa, NIH 3T3, COLO 316 and HaCaT were incubated with 5 μM dTAT for 1 h, washed and imaged. […] After imaging, cells were incubated at 37° C. in a humidified atmosphere containing 5% CO2 for 24 h, washed and imaged again. […] Cell viability was assessed by exclusion of the cell-impermeable nuclear stain SYTOX® Blue at both 1 h and 24 h time point. […] Inverted monochrome (black=fluorescence signal, white-no signal) fluorescence images were made of HeLa cells incubated with 10 or 20 μM of TAT for 1 h.\nLive cells from different lines (HeLa, HaCat, NIH 3T3) were grown in Dulbecco's […] (DMEM) (Fisher) supplemented with 10% fetal bovine serum (FBS) (Fisher) and kept at 37° C. in a humidified atmosphere containing 5% CO2. […] Images were acquired using bright field imaging and three standard fluorescence filter sets: CFP (Ex=436±10 nm/Em=480±20 nm), RFP (Ex=560±20 nm/Em=630±35 nm), and FITC (Ex=488±10 nm/Em=520±20 nm). The fluorescence intensities of different cells were measured with the SlideBook 4.2 software (Olympus, Center Valley, Pa.) and the average fluorescence intensity was determined for each condition. […]", "note": "Ends that are not written are not given here."}
{"substance": "(CK(TMR)TAT)2 (CK(TMR)RKKRRQRRRG; also: dimer) [dTAT]", "values": [{"measurement": "cellular localization of fluorescence signal", "setting": "1 h", "value": "in the cytosol and nucleus of cells"}, {"measurement": "plasma membrane integrity, SYTOX Blue staining", "setting": "1 h incubation, 1 h and 24 h time points", "value": "not stained with SYTOX® Blue"}]}
